Test results reported in PMC3559838 (PLoS ONE, 2013).

Key:
UGT2B7 = target: T1, UGT2B7 (Homo sapiens, UniProt P16662); test: UGT supersome screening; type: in vitro ADME; settings: UGT2B7 supersomes, 10 µM belinostat, 37°C
T1 construct: purchased BD Gentest
Method: (§1) A typical incubation consisted of 50 µg of UGT, 2 mM UDPGA (UGT Reaction Solution A), 50 mM Tris-HCl, 8 mM MgCl2 and 0.025 mg/ml alamethicin (UGT Reaction Solution B) in a final incubation volume of 100 µL. Before the addition of substrate, the incubation mixture was prewarmed and equilibrated for 5 min at 37°C. […] The incubation mixture was vortexed and centrifuged (10,060 g) at 4°C for 10 min, and the supernatants were analyzed. Insect microsomes without UGT cDNA served as negative control. […] Incubations were performed as described above. Three independent experiments were performed for kinetic analysis.

UGT1A8 = target: T2, UGT1A8 (Homo sapiens, UniProt Q9HAW9); test: UGT supersome screening; type: in vitro ADME; settings: UGT1A8 supersomes, 10 µM belinostat, 37°C
T2 construct: purchased BD Gentest
T2 sequence (Q9HAW9 26-530): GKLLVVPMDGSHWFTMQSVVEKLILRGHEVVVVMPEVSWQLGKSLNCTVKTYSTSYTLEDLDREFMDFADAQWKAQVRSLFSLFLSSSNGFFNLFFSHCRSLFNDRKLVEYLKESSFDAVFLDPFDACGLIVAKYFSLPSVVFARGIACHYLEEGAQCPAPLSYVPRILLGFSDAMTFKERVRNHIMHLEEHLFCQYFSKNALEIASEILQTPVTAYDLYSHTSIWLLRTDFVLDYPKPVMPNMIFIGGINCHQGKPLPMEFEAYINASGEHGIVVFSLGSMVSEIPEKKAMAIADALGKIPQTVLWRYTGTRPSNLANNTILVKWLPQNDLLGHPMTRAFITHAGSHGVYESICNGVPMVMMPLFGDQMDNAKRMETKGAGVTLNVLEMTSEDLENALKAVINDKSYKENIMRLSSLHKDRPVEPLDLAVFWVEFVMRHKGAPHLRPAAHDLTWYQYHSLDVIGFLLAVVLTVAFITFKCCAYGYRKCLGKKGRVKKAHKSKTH
Method: as §1

UGT2B4 = target: T3, UGT2B4 (Homo sapiens, UniProt P06133); test: UGT supersome screening; type: in vitro ADME; settings: UGT2B4 supersomes, 10 µM belinostat, 37°C
T3 construct: purchased BD Gentest
T3 sequence (P06133 24-528): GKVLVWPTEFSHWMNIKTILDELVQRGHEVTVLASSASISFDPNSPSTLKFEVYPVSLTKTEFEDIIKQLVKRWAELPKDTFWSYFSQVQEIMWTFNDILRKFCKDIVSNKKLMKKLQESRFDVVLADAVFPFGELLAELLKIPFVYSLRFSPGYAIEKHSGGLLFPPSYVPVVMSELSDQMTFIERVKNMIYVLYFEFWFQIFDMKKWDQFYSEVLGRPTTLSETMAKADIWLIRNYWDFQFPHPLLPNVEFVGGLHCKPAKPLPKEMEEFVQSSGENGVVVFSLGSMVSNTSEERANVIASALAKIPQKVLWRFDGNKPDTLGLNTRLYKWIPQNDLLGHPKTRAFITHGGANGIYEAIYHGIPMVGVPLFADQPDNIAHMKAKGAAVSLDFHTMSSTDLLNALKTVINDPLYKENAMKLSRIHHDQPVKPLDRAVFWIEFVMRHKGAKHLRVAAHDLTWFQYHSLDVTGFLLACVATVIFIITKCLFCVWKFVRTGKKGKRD
Method: as §1

UGT1A3 = target: T4, UGT1A3 (Homo sapiens, UniProt P35503); test: UGT supersome screening; type: in vitro ADME; settings: UGT1A3 supersomes, 10 µM belinostat, 37°C
T4 construct: purchased BD Gentest
T4 sequence (P35503 29-534): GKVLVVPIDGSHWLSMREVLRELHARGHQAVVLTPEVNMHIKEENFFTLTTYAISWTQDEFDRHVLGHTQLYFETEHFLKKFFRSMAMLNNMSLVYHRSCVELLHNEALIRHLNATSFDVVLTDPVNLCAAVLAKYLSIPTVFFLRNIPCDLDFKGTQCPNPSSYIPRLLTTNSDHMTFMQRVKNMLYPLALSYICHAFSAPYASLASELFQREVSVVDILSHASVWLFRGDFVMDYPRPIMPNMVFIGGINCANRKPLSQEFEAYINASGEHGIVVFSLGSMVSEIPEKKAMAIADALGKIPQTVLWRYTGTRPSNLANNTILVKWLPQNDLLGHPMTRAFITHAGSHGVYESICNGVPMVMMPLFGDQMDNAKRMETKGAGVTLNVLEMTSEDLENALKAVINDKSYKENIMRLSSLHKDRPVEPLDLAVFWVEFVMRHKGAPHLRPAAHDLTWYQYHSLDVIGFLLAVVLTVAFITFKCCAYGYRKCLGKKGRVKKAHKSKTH
Method: as §1

[1] = tested on: histone H4 acetylation in peripheral blood mononuclear cells (PBMC) and tumor tissue; parameters: method as in Plumb et al., 2003; settings: ref Plumb et al., 2003, cited from earlier work
CYP3A4 = tested on: CYP3A4; parameters: method as in protocol pharmaceutical information; settings: ref protocol pharmaceutical information; cited from earlier work
UGT1A1 = target: T5, UGT1A1 (Homo sapiens, UniProt P22309); test: UGT supersome screening and kinetic analysis; type: in vitro ADME; settings: 37°C
T5 sequence (P22309 26-533): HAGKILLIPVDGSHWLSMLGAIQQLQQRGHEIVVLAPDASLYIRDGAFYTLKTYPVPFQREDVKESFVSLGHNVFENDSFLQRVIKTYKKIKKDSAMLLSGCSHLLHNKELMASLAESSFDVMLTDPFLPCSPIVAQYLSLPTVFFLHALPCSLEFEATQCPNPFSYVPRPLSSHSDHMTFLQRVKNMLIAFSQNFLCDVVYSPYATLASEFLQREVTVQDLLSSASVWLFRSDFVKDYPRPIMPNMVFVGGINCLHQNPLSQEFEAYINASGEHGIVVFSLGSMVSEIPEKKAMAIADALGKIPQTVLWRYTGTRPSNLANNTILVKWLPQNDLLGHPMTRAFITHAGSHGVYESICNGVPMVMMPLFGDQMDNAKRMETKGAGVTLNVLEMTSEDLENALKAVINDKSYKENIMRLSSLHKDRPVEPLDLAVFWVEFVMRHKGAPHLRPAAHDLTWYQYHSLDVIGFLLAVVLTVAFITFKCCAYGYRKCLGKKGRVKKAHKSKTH
Method: Plots of substrate concentration, S (X axis) versus v (Y axis) were then constructed. Km and Vmax were calculated using the Michaelis-Menten equation (GraphPad software, Inc., San Diego, CA, USA).

CYP1A2 = tested on: CYP1A2; parameters: method as in protocol pharmaceutical information; settings: ref protocol pharmaceutical information; cited from earlier work

T1 sequence (P16662 24-529): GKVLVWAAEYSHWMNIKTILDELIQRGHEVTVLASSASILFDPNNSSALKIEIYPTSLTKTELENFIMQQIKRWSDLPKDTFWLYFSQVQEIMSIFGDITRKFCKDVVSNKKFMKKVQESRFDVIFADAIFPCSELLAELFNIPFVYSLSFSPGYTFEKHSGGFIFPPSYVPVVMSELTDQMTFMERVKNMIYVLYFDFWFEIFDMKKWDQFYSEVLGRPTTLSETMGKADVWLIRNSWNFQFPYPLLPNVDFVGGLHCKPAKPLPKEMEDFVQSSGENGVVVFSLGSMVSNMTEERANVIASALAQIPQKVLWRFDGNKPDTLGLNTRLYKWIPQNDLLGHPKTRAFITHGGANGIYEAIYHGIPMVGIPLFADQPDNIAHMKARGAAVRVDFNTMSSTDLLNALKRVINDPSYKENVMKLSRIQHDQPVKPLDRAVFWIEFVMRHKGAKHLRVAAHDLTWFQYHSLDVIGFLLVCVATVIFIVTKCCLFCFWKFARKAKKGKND

O=C(/C=C/c1cccc(S(=O)(=O)Nc2ccccc2)c1)NO [Belinostat, N-hydroxy-3-(phenylsulphamoylphenyl) acrylamide]
metabolism by UGT isoform (UGT2B7): less than 3% | metabolism by UGT isoform (UGT1A8): less than 3% | metabolism by UGT isoform (UGT2B4): less than 3% | metabolism by UGT isoform (UGT1A3): less than 3% | histone H4 acetylation in PBMC ([1]; 1 and 2 hours after a single IP injection of 40 mg/kg): Hyperacetylated histone H4 was detected | time at which acetylation returned to baseline levels ([1]; PBMC, single IP injection of 40 mg/kg): ≤ 3 h | dose with marked acetylation in both PBMCs and tumor tissue ([1]; mice): ≥ 10 mg/kg | contribution of CYP3A4 to metabolism (CYP3A4): contributes to PXD101 metabolism | belinostat converted to belinostat-G (UGT1A1; 2 h incubation with UGT1A1 supersomes): 73.6% | belinostat converted to belinostat-G (UGT1A1; 4 h incubation with UGT1A1 supersomes): 89.4% | glucuronidation of belinostat by UGT isoform (UGT1A1; UGT1A1 supersomes, 10 µM belinostat): glucuronidated belinostat significantly | CYP1A2 induction (CYP1A2): moderate inducer
